From publication PMC3480348, “Structure and Activity Analysis of Inauhzin Analogs as Novel Antitumor Compounds That Induce p53 and Inhibit Cell Growth” (PLoS ONE, 2012)
Values joined by “and” are separate entries in the source; they are usually repeats but may differ in a detail not shown here. Equal entries are not always repeated. “Also recorded” adds a separate entry of the source.

What was measured:
[1] = tested on: p53 level in H460 and HCT116^+/+ cells; assay: p53 induction by immunoblotting (IB), statement does not separate the cell lines; format: cell-based, human; conditions: 18 hrs, 0.5, 2, 10 µM
Excerpt: (A–B) Initial Inauhzin analogs were purchased and tested the activity on H460 and HCT116^+/+ by immunoblotting (IB). […]

[2] = tested on: p53 level in HCT116^+/+ cells; assay: p53 induction by immunoblotting (IB) in HCT116^+/+ cells; format: cell-based, human
Experimental: (§1) EC90 values were calculated from the EC50 and Hill slope by a web-based calculator: http://www.graphpad.com/quickcalcs/Ecanything1.cfm.

p53 level in H460 cells = assay: p53 induction by immunoblotting (IB) in H460 cells; format: cell-based, human
H460 cells [3] = assay: 3-day WST-8 cell growth inhibition assay, H460; format: cell-based, human; conditions: for EC50: Homo sapiens, NCI-H460, 72 h WST-8, average of triplicates, highest concentration 50 µM, read-out: EC50, cell growth inhibition, H460 p53 wild type
H460 cells [4] = assay: 3-day WST-8 cell growth inhibition assay, H460; format: cell-based, human; conditions: Homo sapiens, NCI-H460, calculated from EC50 and Hill slope (GraphPad web calculator); read-out: EC90, cell growth inhibition, H460 p53 wild type
Experimental: as §1

HCT116^+/+ cells = assay: 3-day WST-8 cell growth inhibition assay, HCT116^+/+; format: cell-based, human; conditions: for EC90 / EC50: Homo sapiens; for EC90: HCT-116, calculated from EC50 and Hill slope, read-out: EC90, cell growth inhibition, HCT116^+/+ p53 wild type; for EC50: HCT-116, 72 h WST-8, average of triplicates, highest concentration 50 µM, read-out: EC50, cell growth inhibition, HCT116^+/+ p53 wild type
Experimental: as §1

HCT116^−/− cells [5] = assay: 3-day WST-8 cell growth inhibition assay, HCT116^−/− (p53 null); format: cell-based; conditions: Homo sapiens, HCT-116, calculated from EC50 and Hill slope
Experimental: as §1

H1299 cells = assay: 3-day WST-8 cell growth inhibition assay, H1299 (p53 null); format: cell-based, human
Experimental: as §1

WI-38 cells = assay: WST-8 cytotoxicity assay on normal fibroblasts WI-38; format: cell-based, human
Experimental: as §1

HCT116^−/− cells [6] = assay: 3-day WST-8 cell growth inhibition assay, HCT116^−/− (p53 null); format: cell-based, human
[7] = 2 µM, 18 hrs, IB normalized to GAPDH, compared to 2 µM INZ

CCC(Sc1nnc2c(n1)[nH]c1ccccc12)C(=O)N1c2ccccc2Sc2ccc(OC)cc21 (stereo not shown) [Compound 7, 2-((5H-[1,2,4]triazino[5,6-b]indol-3-yl)thio)-1-(2-methoxy-10H-phenothiazin-10-yl)butan-1-one]
p53 induction / activation by synthetic analogs [1]: remained active in p53 induction
p53 induction in HCT116^+/+ cells [2, 7]: < 50%
p53 induction in H460 cells (p53 level in H460 cells; [7]): < 50%

CCC(Sc1nnc2c3ccccc3n(C(=O)CCCCC3CC4NC(=O)NC4S3)c2n1)C(=O)N1c2ccccc2Sc2ccccc21 (stereo not shown) [Compound 20, 5-(5-oxo-5-(3-((1-oxo-1-(10H-phenothiazin-10-yl)butan-2-yl)thio)-5H-[1,2,4]triazino[5,6-b]indol-5-yl)pentyl)tetrahydro-1H-thieno[2,3-d]imidazole-2(5H)-one]
EC50 (H460 cells [3]): 2.9 ± 0.2 µM
EC90 (H460 cells [4]): 7.5 µM
p53 induction / activation in HCT116^+/+ cells ([2]; IB, 18 hrs, 0.5, 2, 10 µM, p53 acetylation (lys382), p53 level, MDM2): as effective as INZ
EC90 (HCT116^+/+ cells): 18.3 µM
EC50 (HCT116^+/+ cells): 2.5 ± 0.6 µM
p53 induction / activation in H460 cells (p53 level in H460 cells; IB, 18 hrs, 0.5, 2, 10 µM): as effective as INZ

CCC(Sc1nnc2c3ccccc3n(CCO)c2n1)C(=O)N1c2ccccc2Cc2ccccc21 (stereo not shown) [Compound 37, 1-(acridin-10(9H)-yl)-2-((5-(2-hydroxyethyl)-5H-[1,2,4]triazino[5,6-b]indol-3-yl)thio)butan-1-one]
fold higher potency than INZ in growth inhibition of H460 cells (H460 cells [3]; EC50 compared with INZ): 10 fold and 5- to 10 fold
EC50 (H460 cells [3]): 0.7 µM
p53 induction / activation by synthetic analogs [1]: much better potency than INZ; also recorded: more potent in p53 activation than their parental compound INZ
EC90 (HCT116^−/− cells [5]): 91.7 µM
EC90 (H460 cells [4]): 3.6 µM
fold higher potency than INZ in growth inhibition of HCT116^+/+ cells (HCT116^+/+ cells; EC50 compared with INZ): 5 fold and 5- to 10 fold
EC90 (HCT116^+/+ cells): 5 µM
EC50 (HCT116^+/+ cells): 0.5 µM
EC90 (H1299 cells; Homo sapiens, NCI-H1299, calculated from EC50 and Hill slope): 58.9 µM
EC50 (H1299 cells; Homo sapiens, NCI-H1299, 72 h WST-8, average of triplicates, highest concentration 100 µM): 11.2 µM
effect on p53-null H1299 cells compared with p53-containing cells (H1299 cells; in vitro cytotoxicity): much less effect; also recorded: much less effective
EC50 on H1299 fold higher than on H460 cells (H1299 cells; p53-null H1299 vs p53-containing H460): 3–15 fold
EC50 (WI-38 cells; Homo sapiens, WI-38, highest concentration tested 50 µM, n.d. = not be able to be determined, read-out: EC50, normal cells WI-38 p53 wild type): > 50 µM
toxicity to normal human WI-38 cells (WI-38 cells; normal human fibroblasts, p53-containing): no toxicity
EC50 (HCT116^−/− cells [6]; Homo sapiens, HCT-116, 72 h WST-8, average of triplicates, highest concentration 100 µM): 12.8 ± 1.7 µM
effect on p53-null HCT116^−/− cells compared with p53-containing cells (HCT116^−/− cells [6]; in vitro cytotoxicity): much less effect; also recorded: much less effective
